# Data published in ChEMBL document CHEMBL4507270 (2021).
# Legend:
# Ephrin type-B receptor 6 = target: T1, Ephrin type-B receptor 6 (Homo sapiens, UniProt O15197); experiment: NanoBRET assay (SGC Frankfurt) with EPHB6
# T1 sequence (O15197 whole entry): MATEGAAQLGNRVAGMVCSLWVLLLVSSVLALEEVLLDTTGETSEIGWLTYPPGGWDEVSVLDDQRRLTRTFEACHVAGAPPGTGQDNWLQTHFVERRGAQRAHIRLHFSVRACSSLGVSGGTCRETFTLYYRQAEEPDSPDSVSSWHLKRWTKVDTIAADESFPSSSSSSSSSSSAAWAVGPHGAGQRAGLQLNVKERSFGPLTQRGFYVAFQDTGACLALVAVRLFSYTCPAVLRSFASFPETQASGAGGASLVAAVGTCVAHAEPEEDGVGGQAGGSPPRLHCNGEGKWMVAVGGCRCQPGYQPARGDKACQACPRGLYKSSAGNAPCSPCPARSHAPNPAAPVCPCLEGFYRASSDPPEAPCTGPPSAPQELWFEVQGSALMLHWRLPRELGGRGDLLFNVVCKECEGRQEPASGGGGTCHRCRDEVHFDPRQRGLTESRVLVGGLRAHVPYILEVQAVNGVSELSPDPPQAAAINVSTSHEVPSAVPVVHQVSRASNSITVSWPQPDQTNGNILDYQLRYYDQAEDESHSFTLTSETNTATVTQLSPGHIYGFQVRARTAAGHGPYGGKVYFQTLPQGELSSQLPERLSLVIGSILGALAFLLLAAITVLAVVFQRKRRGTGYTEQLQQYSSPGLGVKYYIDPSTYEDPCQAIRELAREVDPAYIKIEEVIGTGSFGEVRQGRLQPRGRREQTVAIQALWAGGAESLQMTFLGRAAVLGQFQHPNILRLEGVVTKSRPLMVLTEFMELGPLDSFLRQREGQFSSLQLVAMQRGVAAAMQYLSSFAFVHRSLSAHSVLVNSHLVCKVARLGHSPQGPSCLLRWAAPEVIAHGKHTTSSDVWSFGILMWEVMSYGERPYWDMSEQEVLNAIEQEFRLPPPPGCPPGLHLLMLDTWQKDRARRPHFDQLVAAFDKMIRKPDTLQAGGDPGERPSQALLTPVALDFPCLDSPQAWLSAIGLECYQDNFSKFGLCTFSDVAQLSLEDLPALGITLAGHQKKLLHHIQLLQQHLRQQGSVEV
# [1] = target: RAC-gamma serine/threonine-protein kinase (Homo sapiens) (UniProt Q9Y243)
# [2] = target: Mitogen-activated protein kinase kinase kinase 5 (Homo sapiens) (UniProt Q99683)
# [3] = target: Serine/threonine-protein kinase MRCK gamma (Homo sapiens) (UniProt Q6DT37)
# Chain of Serine/threonine-protein kinase MRCK gamma (Homo sapiens) (Q6DT37 whole entry): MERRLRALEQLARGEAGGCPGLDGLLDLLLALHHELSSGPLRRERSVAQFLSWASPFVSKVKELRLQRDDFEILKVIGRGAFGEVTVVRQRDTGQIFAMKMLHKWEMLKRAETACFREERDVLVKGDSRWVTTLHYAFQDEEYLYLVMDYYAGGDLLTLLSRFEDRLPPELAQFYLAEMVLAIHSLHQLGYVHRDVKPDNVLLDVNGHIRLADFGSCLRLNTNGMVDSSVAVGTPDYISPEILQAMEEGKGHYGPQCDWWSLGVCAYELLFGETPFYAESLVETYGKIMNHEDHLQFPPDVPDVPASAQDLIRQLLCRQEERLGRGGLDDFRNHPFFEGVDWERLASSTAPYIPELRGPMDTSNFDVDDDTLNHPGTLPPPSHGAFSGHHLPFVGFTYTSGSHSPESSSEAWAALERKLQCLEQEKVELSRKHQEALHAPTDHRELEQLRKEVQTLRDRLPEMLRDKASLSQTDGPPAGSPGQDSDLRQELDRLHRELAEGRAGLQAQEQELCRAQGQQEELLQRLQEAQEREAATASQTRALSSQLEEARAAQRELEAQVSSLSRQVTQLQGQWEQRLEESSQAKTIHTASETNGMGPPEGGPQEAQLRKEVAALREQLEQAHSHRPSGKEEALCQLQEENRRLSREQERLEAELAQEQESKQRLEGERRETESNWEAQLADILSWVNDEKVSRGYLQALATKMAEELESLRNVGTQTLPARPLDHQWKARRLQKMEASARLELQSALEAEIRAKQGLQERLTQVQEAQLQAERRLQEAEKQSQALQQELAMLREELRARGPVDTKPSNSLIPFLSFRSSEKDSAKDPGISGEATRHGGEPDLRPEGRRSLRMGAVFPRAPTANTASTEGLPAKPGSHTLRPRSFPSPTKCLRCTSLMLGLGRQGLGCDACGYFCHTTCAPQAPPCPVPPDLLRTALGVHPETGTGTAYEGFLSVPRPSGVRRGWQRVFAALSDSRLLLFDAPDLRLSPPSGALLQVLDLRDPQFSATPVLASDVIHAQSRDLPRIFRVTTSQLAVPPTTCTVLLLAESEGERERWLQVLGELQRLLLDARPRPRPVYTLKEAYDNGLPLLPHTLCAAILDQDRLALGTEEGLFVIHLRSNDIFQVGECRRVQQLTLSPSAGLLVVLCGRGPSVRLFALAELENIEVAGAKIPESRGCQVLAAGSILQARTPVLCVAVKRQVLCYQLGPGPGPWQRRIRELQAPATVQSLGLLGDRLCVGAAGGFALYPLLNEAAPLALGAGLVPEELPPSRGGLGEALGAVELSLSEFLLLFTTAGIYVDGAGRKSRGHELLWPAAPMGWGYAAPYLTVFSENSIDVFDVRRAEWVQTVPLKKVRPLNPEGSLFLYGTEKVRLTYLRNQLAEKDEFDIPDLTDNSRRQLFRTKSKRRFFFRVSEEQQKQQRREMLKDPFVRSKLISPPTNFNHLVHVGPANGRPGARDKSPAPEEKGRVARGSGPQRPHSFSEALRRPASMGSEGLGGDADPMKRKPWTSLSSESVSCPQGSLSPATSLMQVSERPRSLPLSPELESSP
# [4] = target: Mitogen-activated protein kinase 6 (Homo sapiens) (UniProt Q16659)
# [5] = target: Fibroblast growth factor receptor 3 (Homo sapiens, UniProt P22607)
# Chain of Fibroblast growth factor receptor 3 (P22607 23-806 limits assumed): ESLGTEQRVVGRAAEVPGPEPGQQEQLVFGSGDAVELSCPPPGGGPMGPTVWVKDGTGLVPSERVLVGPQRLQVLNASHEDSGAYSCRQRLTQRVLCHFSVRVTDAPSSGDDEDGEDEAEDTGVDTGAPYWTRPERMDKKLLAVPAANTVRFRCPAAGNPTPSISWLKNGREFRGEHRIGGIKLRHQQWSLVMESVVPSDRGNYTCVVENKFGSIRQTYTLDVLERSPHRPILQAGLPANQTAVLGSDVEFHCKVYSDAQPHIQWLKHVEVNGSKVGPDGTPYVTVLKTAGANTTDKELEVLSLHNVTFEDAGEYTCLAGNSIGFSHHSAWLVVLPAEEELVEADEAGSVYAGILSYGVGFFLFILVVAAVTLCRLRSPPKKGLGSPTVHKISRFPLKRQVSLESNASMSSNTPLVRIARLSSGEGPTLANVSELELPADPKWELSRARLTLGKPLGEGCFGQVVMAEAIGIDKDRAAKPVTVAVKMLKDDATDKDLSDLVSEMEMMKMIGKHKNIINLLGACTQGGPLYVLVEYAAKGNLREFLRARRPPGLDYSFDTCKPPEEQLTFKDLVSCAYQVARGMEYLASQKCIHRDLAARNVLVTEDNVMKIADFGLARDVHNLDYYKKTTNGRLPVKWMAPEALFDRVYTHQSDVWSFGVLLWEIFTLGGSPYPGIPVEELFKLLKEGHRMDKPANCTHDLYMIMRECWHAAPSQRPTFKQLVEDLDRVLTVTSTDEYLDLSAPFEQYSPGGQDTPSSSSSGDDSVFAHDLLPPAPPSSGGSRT
# [6] = tested on: Receptor-type tyrosine-protein kinase FLT3 (Homo sapiens), P36888 [D835V]
# [7] = target: Rhodopsin kinase GRK1 (Homo sapiens) (UniProt Q15835)
# [8] = target: Interleukin-1 receptor-associated kinase 4 (Homo sapiens) (UniProt Q9NWZ3)
# [9] = tested on: Mast/stem cell growth factor receptor Kit (Homo sapiens), P10721 [L576P]
# Chain of Mast/stem cell growth factor receptor Kit (Homo sapiens), P10721 [L576P] (P10721 whole entry L576P): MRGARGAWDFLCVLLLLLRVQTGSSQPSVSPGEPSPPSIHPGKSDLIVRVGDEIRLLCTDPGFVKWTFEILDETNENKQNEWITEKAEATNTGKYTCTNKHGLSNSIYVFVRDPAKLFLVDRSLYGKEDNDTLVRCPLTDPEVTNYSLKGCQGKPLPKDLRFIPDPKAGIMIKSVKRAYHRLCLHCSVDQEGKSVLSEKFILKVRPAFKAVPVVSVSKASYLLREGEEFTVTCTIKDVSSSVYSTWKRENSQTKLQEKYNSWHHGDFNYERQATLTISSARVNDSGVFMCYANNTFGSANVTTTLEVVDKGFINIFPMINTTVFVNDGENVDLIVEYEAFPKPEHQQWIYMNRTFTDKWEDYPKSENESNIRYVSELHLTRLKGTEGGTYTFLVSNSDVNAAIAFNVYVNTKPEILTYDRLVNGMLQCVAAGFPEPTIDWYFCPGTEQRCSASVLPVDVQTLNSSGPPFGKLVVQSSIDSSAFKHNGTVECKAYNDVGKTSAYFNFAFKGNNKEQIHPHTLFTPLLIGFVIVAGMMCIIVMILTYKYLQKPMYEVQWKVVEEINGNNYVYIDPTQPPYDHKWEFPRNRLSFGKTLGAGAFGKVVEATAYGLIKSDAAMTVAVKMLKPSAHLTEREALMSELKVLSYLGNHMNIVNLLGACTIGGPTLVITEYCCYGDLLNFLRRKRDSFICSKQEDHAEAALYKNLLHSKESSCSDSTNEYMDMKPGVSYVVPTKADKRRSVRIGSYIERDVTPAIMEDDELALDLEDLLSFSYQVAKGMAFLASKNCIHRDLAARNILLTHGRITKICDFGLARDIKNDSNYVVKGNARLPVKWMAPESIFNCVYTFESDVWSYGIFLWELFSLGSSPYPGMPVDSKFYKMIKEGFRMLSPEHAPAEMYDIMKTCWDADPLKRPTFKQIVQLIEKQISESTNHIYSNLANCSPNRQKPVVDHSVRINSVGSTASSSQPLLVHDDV
# [10] = tested on: Mast/stem cell growth factor receptor Kit (Homo sapiens), P10721 [V559D,T670I]
# Chain of Mast/stem cell growth factor receptor Kit (Homo sapiens), P10721 [V559D,T670I] (P10721 whole entry V559D/T670I): as the sequence (P10721 whole entry L576P) above, with V559D, P576L, T670I counted along it
# [11] = target: Mitogen-activated protein kinase kinase kinase 15 (Homo sapiens) (UniProt Q6ZN16)
# [12] = target: Mitogen-activated protein kinase kinase kinase kinase 5 (Homo sapiens) (UniProt Q9Y4K4)
# [13] = target: Serine/threonine-protein kinase MARK2 (Homo sapiens) (UniProt Q7KZI7)
# [14] = target: Dual specificity mitogen-activated protein kinase kinase 7 (Homo sapiens) (UniProt O14733)
# Chain of Dual specificity mitogen-activated protein kinase kinase 7 (Homo sapiens) (O14733 whole entry): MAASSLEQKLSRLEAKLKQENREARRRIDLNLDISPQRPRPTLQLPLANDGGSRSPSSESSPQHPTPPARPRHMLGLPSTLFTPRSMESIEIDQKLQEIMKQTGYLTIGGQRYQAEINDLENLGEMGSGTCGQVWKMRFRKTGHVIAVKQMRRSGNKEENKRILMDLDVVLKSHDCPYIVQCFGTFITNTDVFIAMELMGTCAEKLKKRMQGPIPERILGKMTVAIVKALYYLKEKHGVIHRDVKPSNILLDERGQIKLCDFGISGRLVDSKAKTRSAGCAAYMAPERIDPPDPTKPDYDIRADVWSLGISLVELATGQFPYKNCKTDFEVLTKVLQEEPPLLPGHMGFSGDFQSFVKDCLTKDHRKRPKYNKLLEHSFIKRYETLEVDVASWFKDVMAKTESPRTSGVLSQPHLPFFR
# [15] = target: Serine/threonine-protein kinase MRCK beta (Homo sapiens) (UniProt Q9Y5S2)
# [16] = target: Serine/threonine-protein kinase 38 (Homo sapiens) (UniProt Q15208)
# [17] = target: Serine/threonine-protein kinase pim-3 (Homo sapiens) (UniProt Q86V86)
# [18] = target: Phosphatidylinositol 5-phosphate 4-kinase type-2 beta (Homo sapiens) (UniProt P78356)
# [19] = target: Protein kinase C theta type (Homo sapiens) (UniProt Q04759)
# [20] = target: Serine/threonine-protein kinase PRP4 homolog (Homo sapiens) (UniProt Q13523)
# [21] = target: Proto-oncogene tyrosine-protein kinase receptor Ret (Homo sapiens) (UniProt P07949)
# [22] = target: Serine/threonine-protein kinase RIO3 (Homo sapiens) (UniProt O14730)
# [23] = target: Rho-associated protein kinase 1 (Homo sapiens) (UniProt Q13464)
# [24] = target: Serine/threonine-protein kinase SIK1 (Homo sapiens) (UniProt P57059)
# Chain of Serine/threonine-protein kinase SIK1 (Homo sapiens) (P57059 whole entry): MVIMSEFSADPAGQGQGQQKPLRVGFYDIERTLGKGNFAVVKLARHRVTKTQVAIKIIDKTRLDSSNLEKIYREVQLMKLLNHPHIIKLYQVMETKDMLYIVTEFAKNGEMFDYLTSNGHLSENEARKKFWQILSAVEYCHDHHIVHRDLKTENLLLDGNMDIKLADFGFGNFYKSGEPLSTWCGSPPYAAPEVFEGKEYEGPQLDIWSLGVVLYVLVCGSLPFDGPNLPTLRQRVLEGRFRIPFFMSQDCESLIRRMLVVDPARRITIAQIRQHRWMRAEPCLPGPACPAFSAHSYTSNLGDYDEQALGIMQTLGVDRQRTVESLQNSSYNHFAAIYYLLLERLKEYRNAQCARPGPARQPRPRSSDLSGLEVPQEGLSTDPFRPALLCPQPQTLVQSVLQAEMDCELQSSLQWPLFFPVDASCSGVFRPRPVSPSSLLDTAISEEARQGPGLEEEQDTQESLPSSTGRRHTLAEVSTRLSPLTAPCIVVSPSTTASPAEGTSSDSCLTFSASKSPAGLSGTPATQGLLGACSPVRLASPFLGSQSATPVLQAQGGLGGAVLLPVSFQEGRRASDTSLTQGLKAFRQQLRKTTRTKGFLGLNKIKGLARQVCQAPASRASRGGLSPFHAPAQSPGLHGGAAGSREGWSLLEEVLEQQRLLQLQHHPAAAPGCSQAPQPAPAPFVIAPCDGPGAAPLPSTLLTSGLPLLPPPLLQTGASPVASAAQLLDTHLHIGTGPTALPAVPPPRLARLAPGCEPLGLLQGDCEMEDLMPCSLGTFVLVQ
# [25] = target: NUAK family SNF1-like kinase 2 (Homo sapiens) (UniProt Q9H093)
# [26] = target: TGF-beta receptor type-1 (Homo sapiens) (UniProt P36897)
# [27] = target: Testis-specific serine/threonine-protein kinase 3 (Homo sapiens) (UniProt Q96PN8)
# Chain of Testis-specific serine/threonine-protein kinase 3 (Homo sapiens) (Q96PN8 whole entry): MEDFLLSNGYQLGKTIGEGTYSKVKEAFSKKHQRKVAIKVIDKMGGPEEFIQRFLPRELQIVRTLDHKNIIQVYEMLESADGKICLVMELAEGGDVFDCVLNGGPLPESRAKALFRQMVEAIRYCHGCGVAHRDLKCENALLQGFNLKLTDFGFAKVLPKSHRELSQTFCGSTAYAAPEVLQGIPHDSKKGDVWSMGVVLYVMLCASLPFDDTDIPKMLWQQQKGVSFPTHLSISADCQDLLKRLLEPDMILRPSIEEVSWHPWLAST
# [28] = target: 5-hydroxytryptamine receptor 2A (Homo sapiens) (UniProt P28223); conditions: Compound concentration 10.0 uM
# [29] = target: 5-hydroxytryptamine receptor 3A (Homo sapiens) (UniProt P46098); conditions: Compound concentration 10.0 uM
# Mu-type opioid receptor = Mu-type opioid receptor (Homo sapiens, UniProt P35372); conditions: Compound concentration 10.0 uM
# [30] = Compound concentration 1000.0 nM
# [31] = Compound concentration 100.0 nM
compound,measurement,setting,value
Cc1cc(NC(=O)c2cccc(S(F)(F)(F)(F)F)c2)cc(-n2ccn3nc(-c4cccnc4)cc23)c1 [BAY-309],EC50,Ephrin type-B receptor 6,27 µM (not active)
same,IC50,Ephrin type-B receptor 6,11 µM (not active)
same,residual activity,[1]; [30],100%
same,residual activity,[2]; [30],100%
same,residual activity,[3]; [30],100%
same,residual activity,[4]; [30],100%
same,residual activity,[5]; [30],90.7%
same,residual activity,[6]; [30],100%
same,residual activity,[7]; [30],50.4%
same,residual activity,[8]; [30],98.4%
same,residual activity,[9]; [30],100%
same,residual activity,[10]; [30],91.3%
same,residual activity,[11]; [30],100%
same,residual activity,[12]; [30],100%
same,residual activity,[13]; [30],100%
same,residual activity,[14]; [30],89.7%
same,residual activity,[15]; [30],100%
same,residual activity,[16]; [30],92.3%
same,residual activity,[17]; [30],100%
same,residual activity,[18]; [30],100%
same,residual activity,[19]; [30],60.3%
same,residual activity,[20]; [30],99.7%
same,residual activity,[21]; [30],100%
same,residual activity,[22]; [30],85.9%
same,residual activity,[23]; [30],74.8%
same,residual activity,[24]; [30],100%
same,residual activity,[25]; [30],100%
same,residual activity,[26]; [30],74.3%
same,residual activity,[27]; [30],100%
same,inhibition,[28],21.9%
same,inhibition,[29],-8.73%
same,inhibition,Mu-type opioid receptor,60%
Cc1cc(C)c(-n2ccn3nc(-c4cccnc4)cc23)cc1NC(=O)c1cc(C#N)cc(S(F)(F)(F)(F)F)c1 [BAY-826],EC50,Ephrin type-B receptor 6,12 µM (not active)
same,IC50,Ephrin type-B receptor 6,3.9 µM (not active)
same,residual activity,[1]; [31],95.6%
same,residual activity,[2]; [31],100%
same,residual activity,[3]; [31],88.8%
same,residual activity,[4]; [31],85.8%
same,residual activity,[5]; [31],95.6%
same,residual activity,[6]; [31],85.2%
same,residual activity,[7]; [31],71.2%
same,residual activity,[8]; [31],100%
same,residual activity,[9]; [31],40.7%
same,residual activity,[10]; [31],67.9%
same,residual activity,[11]; [31],48.8%
same,residual activity,[12]; [31],83.4%
same,residual activity,[13]; [31],100%
same,residual activity,[14]; [31],70.8%
same,residual activity,[15]; [31],95.5%
same,residual activity,[16]; [31],80.4%
same,residual activity,[17]; [31],83.1%
same,residual activity,[18]; [31],52.2%
same,residual activity,[19]; [31],100%
same,residual activity,[20]; [31],80.6%
same,residual activity,[21]; [31],82%
same,residual activity,[22]; [31],100%
same,residual activity,[23]; [31],74.9%
same,residual activity,[24]; [31],86.3%
same,residual activity,[25]; [31],86.1%
same,residual activity,[26]; [31],98.2%
same,residual activity,[27]; [31],76.9%
same,inhibition,[28],-4.7%
same,inhibition,[29],18.4%
same,inhibition,Mu-type opioid receptor,20.7%
